Source: article PMC9694544, “Conteltinib (CT-707) in patients with advanced ALK-positive non-small cell lung cancer: a multicenter, open-label, first-in-human phase 1 study” (BMC Medicine, 2022)

System: patients with ALK-positive NSCLC
Experiment: Phase 1 safety assessment (TRAEs by CTCAE 4.03, DLT, MTD, RP2D)
Format: in vivo, human
Experimental: In the dose-escalation phase, the dose was escalated sequentially from a low to a high level with a 3 + 3 dose-escalation scheme based on the modified Fibonacci method. The starting dose for conteltinib was 50 mg orally quaque die (QD). Dose escalation proceeded to the next six cohorts of 100 mg, 200 mg, 300 mg, 450 mg, 600 mg, and 800 mg QD. For each dose, there was a PK lead-in phase where a single dose was given 7 days before cycle 1 day 1. Then, each dose was taken continuously in a 28-day cycle. The first cycle was for dose-limiting toxicity (DLT) investigation. When one of three patients experienced a DLT in a dose cohort, three additional patients were enrolled in the same dose cohort to assess the dose level in a total of six patients. All patients received conteltinib until disease progression, unacceptable toxicity, or withdrawal of consent. Patients received follow-up safety assessments for 30 days (±7 days) after the last conteltinib dose.
In the dose-expansion phase, each dose was taken continuously in a 28-day cycle. At the end of each cycle, a safety evaluation was conducted. If patients met the criteria to enter the next cycle, treatment with conteltinib was continued for subsequent cycles. All patients received conteltinib until disease progression, unacceptable toxicity, or withdrawal of consent. Patients received follow-up safety assessments for 30 days (±7 days) after the last dose of conteltinib.
The safety of conteltinib was assessed in safety set (SS) which was based on the National Cancer Institute Common Terminology Criteria for Adverse Events (CTCAE) version 4.03, laboratory tests, vital signs, ECG, and clinical observations. […] Adverse events (AEs) were judged to be treatment-related or not by investigators.
DLTs were AEs occurring in the first cycle of treatment (28 days) that were attributed to conteltinib, and the criteria were grade 4 neutropenia lasting ≥ 7 days, febrile neutropenia, grade 3 thrombocytopenia, grade 3 non-hematologic toxicity, and any conteltinib-related toxicity resulting in treatment delay > 2 weeks or discontinuation of conteltinib treatment at the assigned dose level. Besides, grade 3 nausea, vomiting, or diarrhea for ≥ 3 days or grade 4 nausea, vomiting, or diarrhea of any duration was considered as a DLT. The MTD was defined as the dose of conteltinib that would be closest to but not higher than a 33% probability of a DLT.

SMILES: COc1cc(N2CCC(N3CCN(C)CC3)CC2)ccc1Nc1nc2c(c(Nc3ccccc3S(=O)(=O)NC(C)C)n1)CCN2 [Conteltinib]
- TRAE Hypercholesterolemia (450 mg QD (n=14), Grade 1–2): 1 (7.1) n (%)
- TRAE Hyperglycemia (450 mg QD (n=14), Grade 1–2): 1 (7.1) n (%)
- TRAE Hypertriglyceridemia (450 mg QD (n=14), Grade 1–2): 2 (14.3) n (%)
- TRAE Hyperuricemia (450 mg QD (n=14), Grade 1–2): 3 (21.4) n (%)
- TRAE Hypoalbuminemia (450 mg QD (n=14), Grade 1–2): 2 (14.3) n (%)
- TRAE Nausea (450 mg QD (n=14), Grade 1–2): 6 (42.9) n (%)
- TRAE Proteinuria (450 mg QD (n=14), Grade 1–2): 1 (7.1) n (%)
- TRAE Serum creatinine elevated (450 mg QD (n=14), Grade 1–2): 10 (71.4) n (%)
- TRAE Vomiting (450 mg QD (n=14), Grade 1–2): 6 (42.9) n (%)
- TRAE Weight loss (450 mg QD (n=14), Grade 1–2): 3 (21.4) n (%)
- TRAE γ-GGT elevated (450 mg QD (n=14), Grade 1–2): 3 (21.4) n (%)
- Patients with any TRAE (450 mg QD (n=14), Grade ≥ 3): 3 (21.4) n (%)
- TRAE ALT elevated (450 mg QD (n=14), Grade ≥ 3): 0 (0.0) n (%)
- TRAE AST elevated (450 mg QD (n=14), Grade ≥ 3): 0 (0.0) n (%)
- TRAE Abdominal pain (450 mg QD (n=14), Grade ≥ 3): 0 (0.0) n (%)
- TRAE Abdominal pain upper (450 mg QD (n=14), Grade ≥ 3): 0 (0.0) n (%)
- TRAE Appetite decreased (450 mg QD (n=14), Grade ≥ 3): 0 (0.0) n (%)
- TRAE Conjugated bilirubin elevated (450 mg QD (n=14), Grade ≥ 3): 0 (0.0) n (%)
- TRAE Diarrhea (450 mg QD (n=14), Grade ≥ 3): 0 (0.0) n (%)
- TRAE Hypercholesterolemia (450 mg QD (n=14), Grade ≥ 3): 0 (0.0) n (%)
- TRAE Hyperglycemia (450 mg QD (n=14), Grade ≥ 3): 0 (0.0) n (%)
- TRAE Hypertriglyceridemia (450 mg QD (n=14), Grade ≥ 3): 0 (0.0) n (%)
- TRAE Hyperuricemia (450 mg QD (n=14), Grade ≥ 3): 0 (0.0) n (%)
- TRAE Hypoalbuminemia (450 mg QD (n=14), Grade ≥ 3): 0 (0.0) n (%)
- TRAE Nausea (450 mg QD (n=14), Grade ≥ 3): 0 (0.0) n (%)
- TRAE Proteinuria (450 mg QD (n=14), Grade ≥ 3): 0 (0.0) n (%)
- TRAE Serum creatinine elevated (450 mg QD (n=14), Grade ≥ 3): 0 (0.0) n (%)
- TRAE Vomiting (450 mg QD (n=14), Grade ≥ 3): 0 (0.0) n (%)
- TRAE Weight loss (450 mg QD (n=14), Grade ≥ 3): 0 (0.0) n (%)
- TRAE γ-GGT elevated (450 mg QD (n=14), Grade ≥ 3): 3 (21.4) n (%)
- Patients with any TRAE (600 mg QD (n=18), Grade 1–2): 18 (100) n (%)
- TRAE ALT elevated (600 mg QD (n=18), Grade 1–2): 7 (38.9) n (%)
- TRAE AST elevated (600 mg QD (n=18), Grade 1–2): 8 (44.4) n (%)
- TRAE Abdominal pain (600 mg QD (n=18), Grade 1–2): 7 (38.9) n (%)
- TRAE Abdominal pain upper (600 mg QD (n=18), Grade 1–2): 2 (11.1) n (%)
- TRAE Appetite decreased (600 mg QD (n=18), Grade 1–2): 7 (38.9) n (%)
- TRAE Conjugated bilirubin elevated (600 mg QD (n=18), Grade 1–2): 2 (11.1) n (%)
- TRAE Diarrhea (600 mg QD (n=18), Grade 1–2): 16 (88.9) n (%)
- TRAE Hypercholesterolemia (600 mg QD (n=18), Grade 1–2): 4 (22.2) n (%)
- TRAE Hyperglycemia (600 mg QD (n=18), Grade 1–2): 6 (33.3) n (%)
- TRAE Hypertriglyceridemia (600 mg QD (n=18), Grade 1–2): 8 (44.4) n (%)
- TRAE Hyperuricemia (600 mg QD (n=18), Grade 1–2): 10 (55.6) n (%)
- TRAE Hypoalbuminemia (600 mg QD (n=18), Grade 1–2): 3 (16.7) n (%)
- TRAE Nausea (600 mg QD (n=18), Grade 1–2): 9 (50.0) n (%)
- TRAE Proteinuria (600 mg QD (n=18), Grade 1–2): 8 (44.4) n (%)
- TRAE Serum creatinine elevated (600 mg QD (n=18), Grade 1–2): 8 (44.4) n (%)
- TRAE Vomiting (600 mg QD (n=18), Grade 1–2): 11 (61.1) n (%)
- TRAE Weight loss (600 mg QD (n=18), Grade 1–2): 8 (44.4) n (%)
- TRAE γ-GGT elevated (600 mg QD (n=18), Grade 1–2): 8 (44.4) n (%)
- Patients with any TRAE (600 mg QD (n=18), Grade ≥ 3): 5 (27.8) n (%)
- TRAE ALT elevated (600 mg QD (n=18), Grade ≥ 3): 0 (0.0) n (%)
- TRAE AST elevated (600 mg QD (n=18), Grade ≥ 3): 0 (0.0) n (%)
- TRAE Abdominal pain (600 mg QD (n=18), Grade ≥ 3): 0 (0.0) n (%)
- TRAE Abdominal pain upper (600 mg QD (n=18), Grade ≥ 3): 0 (0.0) n (%)
- TRAE Appetite decreased (600 mg QD (n=18), Grade ≥ 3): 0 (0.0) n (%)
- TRAE Conjugated bilirubin elevated (600 mg QD (n=18), Grade ≥ 3): 0 (0.0) n (%)
- TRAE Diarrhea (600 mg QD (n=18), Grade ≥ 3): 2 (11.1) n (%)
- TRAE Hypercholesterolemia (600 mg QD (n=18), Grade ≥ 3): 0 (0.0) n (%)
- TRAE Hyperglycemia (600 mg QD (n=18), Grade ≥ 3): 0 (0.0) n (%)
- TRAE Hypertriglyceridemia (600 mg QD (n=18), Grade ≥ 3): 0 (0.0) n (%)
- TRAE Hyperuricemia (600 mg QD (n=18), Grade ≥ 3): 0 (0.0) n (%)
- TRAE Hypoalbuminemia (600 mg QD (n=18), Grade ≥ 3): 0 (0.0) n (%)
- TRAE Nausea (600 mg QD (n=18), Grade ≥ 3): 0 (0.0) n (%)
- TRAE Proteinuria (600 mg QD (n=18), Grade ≥ 3): 0 (0.0) n (%)
- TRAE Serum creatinine elevated (600 mg QD (n=18), Grade ≥ 3): 1 (5.6) n (%)
- TRAE Vomiting (600 mg QD (n=18), Grade ≥ 3): 0 (0.0) n (%)
- TRAE Weight loss (600 mg QD (n=18), Grade ≥ 3): 0 (0.0) n (%)
- TRAE γ-GGT elevated (600 mg QD (n=18), Grade ≥ 3): 1 (5.6) n (%)
- DLT events (600 mg QD, cycle 1, dose-escalation phase, grade 3 serum creatinine elevated): One
- Patients with any TRAE (800 mg QD (n=4), Grade 1–2): 3 (75.0) n (%)
- TRAE ALT elevated (800 mg QD (n=4), Grade 1–2): 0 (0.0) n (%)
- TRAE AST elevated (800 mg QD (n=4), Grade 1–2): 1 (25.0) n (%)
- TRAE Abdominal pain (800 mg QD (n=4), Grade 1–2): 3 (75.0) n (%)
- TRAE Abdominal pain upper (800 mg QD (n=4), Grade 1–2): 0 (0.0) n (%)
- TRAE Appetite decreased (800 mg QD (n=4), Grade 1–2): 1 (25.0) n (%)
- TRAE Conjugated bilirubin elevated (800 mg QD (n=4), Grade 1–2): 0 (0.0) n (%)
- TRAE Diarrhea (800 mg QD (n=4), Grade 1–2): 3 (75.0) n (%)
- TRAE Hypercholesterolemia (800 mg QD (n=4), Grade 1–2): 1 (25.0) n (%)
- TRAE Hyperglycemia (800 mg QD (n=4), Grade 1–2): 1 (25.0) n (%)
- TRAE Hypertriglyceridemia (800 mg QD (n=4), Grade 1–2): 2 (50.0) n (%)
- TRAE Hyperuricemia (800 mg QD (n=4), Grade 1–2): 3 (75.0) n (%)
- TRAE Hypoalbuminemia (800 mg QD (n=4), Grade 1–2): 1 (25.0) n (%)
- TRAE Nausea (800 mg QD (n=4), Grade 1–2): 1 (25.0) n (%)
- TRAE Proteinuria (800 mg QD (n=4), Grade 1–2): 2 (50.0) n (%)
- TRAE Serum creatinine elevated (800 mg QD (n=4), Grade 1–2): 2 (50.0) n (%)
- TRAE Vomiting (800 mg QD (n=4), Grade 1–2): 2 (50.0) n (%)
- TRAE Weight loss (800 mg QD (n=4), Grade 1–2): 2 (50.0) n (%)
- TRAE γ-GGT elevated (800 mg QD (n=4), Grade 1–2): 2 (50.0) n (%)
- Patients with any TRAE (800 mg QD (n=4), Grade ≥ 3): 0 (0.0) n (%)
- TRAE ALT elevated (800 mg QD (n=4), Grade ≥ 3): 0 (0.0) n (%)
- TRAE AST elevated (800 mg QD (n=4), Grade ≥ 3): 0 (0.0) n (%)
- TRAE Abdominal pain (800 mg QD (n=4), Grade ≥ 3): 0 (0.0) n (%)
- TRAE Abdominal pain upper (800 mg QD (n=4), Grade ≥ 3): 0 (0.0) n (%)
- TRAE Appetite decreased (800 mg QD (n=4), Grade ≥ 3): 0 (0.0) n (%)
- TRAE Conjugated bilirubin elevated (800 mg QD (n=4), Grade ≥ 3): 0 (0.0) n (%)
- TRAE Diarrhea (800 mg QD (n=4), Grade ≥ 3): 0 (0.0) n (%)
- TRAE Hypercholesterolemia (800 mg QD (n=4), Grade ≥ 3): 0 (0.0) n (%)
- TRAE Hyperglycemia (800 mg QD (n=4), Grade ≥ 3): 0 (0.0) n (%)
